Earlier results as cited in patent US7102020B2, “Total synthesis of daurichromenic acid” (priority 2002, dated 2006).

Test system: HIV
Details: acutely infected H9 cells

CC(C)=CCC/C(C)=C/CC[C@@]1(C)C=Cc2c(cc(C)c(C(=O)O)c2O)O1 [Daurichromenic acid]
anti-HIV activity EC50: 5.67 ng/mL
